The values that follow come from a melting point compilation (Tetko et al.; mined from patent text by program, amines drawn as free bases though some values may be those of a salt).

The term melting point denotes the temperature, or range, at which the solid turns liquid.

Consider `CC(C)OC(=O)n1ncc2cc(C(O)(c3cn(C)c4ccccc34)C(F)(F)F)ccc21` (stereo unspecified), for which the melting point was 105 to 106 °C.

For `CCc1[nH]n(C2CCCC2)c2nc(-c3cc(OCCN4CCOCC4)cc(OCCN4CCOCC4)c3)nc(=O)c1-2`, the melting point is 182 to 183 °C.

`CCCCOC(=O)c1ccc(C#N)cc1` returned a melting point of 54 to 55 °C.

Turning to `O=C(C=Cc1ccc2ccccc2c1)c1cnc2sc3c(n12)CCCCC3`, the melting point lay within 185 to 188 °C.

`O=C(NCc1ccccn1)OCCOCCOC(=O)NCC1CCCCC1`: the melting point is 65 to 67 °C.

`COC(=O)c1ccc(N)cc1S(=O)(=O)NC(C)(C)C` gave a melting point of 198 to 199 °C.

For the compound `O=C(CCCCC(=O)Oc1cccc(O)c1O)Oc1cccc(O)c1O`, the melting point was 110 to 111 °C.

In turn, `O=C(NC(=O)N(SC(Cl)(Cl)Cl)c1ccc(C(F)(F)F)cc1)c1c(F)cccc1F` showed a melting point of 129 to 130 °C.

Regarding `O=C(NC(Cc1ccc(OCc2ccccc2)cc1)C(=O)O)c1nc2ccc(-c3ccc(Cl)cc3)cn2c1Cl` (stereo unspecified), the melting point is 242 to 244 °C.

`Cn1ncc(CC(=O)O)c1OCCCc1cn(-c2ccc(C(F)(F)F)cn2)nc1C1CCCCC1` registered a melting point of 137 to 138 °C.

Regarding `COc1ccc(Nc2ccc(OCc3ccccc3)cc2)cc1`, the melting point was 108 °C.

Take `Cc1ccc(C=CC(=O)NNC(=O)C=Cc2ccc(C)cc2)cc1`: the melting point is 307 °C.

In turn, `COc1cn(-c2cccc3c2OC(F)(F)O3)nc(-c2ccnn2-c2ccccc2)c1=O` displayed a melting point of 181 to 183 °C.

`C#Cc1ccc2c(c1)C(=O)N(c1ccc3c(c1)C=C3)C2=O` returned a melting point of 191 to 192 °C.

For `COC(=O)c1sc2ccccc2c1NC(C)=O`, the melting point was 178 to 180 °C.

In the case of `COC(=O)c1cccc(NC(=O)[C@H](Cc2ccccc2)NC(=O)OC(C)(C)C)c1`, the melting point is 62 to 66 °C.

Turning to `CC(CCCCCC(C)NC(=O)c1ccc(OC(F)(F)F)cc1)NC(=O)c1ccc(OC(F)(F)F)cc1` (stereo unspecified), the melting point fell in the range of 156 to 160 °C.

`CN1C(=S)COC1=Nc1cccc(C(F)(F)F)c1` registered a melting point of 84 to 86 °C.

With `COCc1cnc2c(NC(=O)c3c(Cl)cccc3Cl)cc(C)cc2c1-n1ccnc1`, the melting point fell in the range of 99 to 101 °C.

`CC(C)(C)c1cc(Cl)n2ncnc2n1`: the melting point is 285 to 286 °C.

`O=[N+]([O-])c1ccc2nc(CCCCCCCCc3nc4ccc([N+](=O)[O-])cc4[nH]3)[nH]c2c1` gave a melting point of 135 to 137 °C.

Regarding `O=C(c1ccccc1)c1c[nH]c(=O)[nH]1`, the melting point lay in the range of 329 to 330 °C.

Regarding `COCc1nsc2ccc(-n3c(=O)cc(C(F)(F)F)n(C)c3=O)cc12`, the melting point was 161 to 163 °C.

As to `O=c1c2c(CCc3ccncc3)n[nH]c2c2cccnc2n1-c1cccc([N+](=O)[O-])c1`, the melting point fell in the range of 161 to 165 °C.

As to `CC1=Nc2c(C)nn(C)c2C2=NCC(C)(C)N12`, the melting point is 280 to 283 °C.

The compound `O=C1NC(c2cccs2)=C2C(=O)NC(c3cccs3)=C12` showed a melting point above 400 °C.

In turn, `Cc1c(OCC(F)(F)F)ccnc1CSc1nc2ccccc2n1N` yielded a melting point of 134 to 135 °C.

The compound `CCOC(=O)c1c(COC(C)=O)cccc1S(N)(=O)=O` yielded a melting point of 98 to 100 °C.

`Cc1cc(Cc2cc(C(C)(C)CC(C)(C)C)cc(-n3nc4ccccc4n3)c2O)c(O)c(C(C)(C)C)c1` yielded a melting point of 148 °C.

`N#Cc1ccccc1-c1cccc(-n2cnc3cc(-c4cnco4)ccc32)c1` showed a melting point of 222 to 226 °C.

The compound `CNS(=O)(=O)N(C)C(=O)CCCl` displayed a melting point of 96 °C.

`CC(C)Oc1cc(COc2ccc(C(F)(F)F)cc2)cc(COc2cc(CCC(=O)O)n(-c3ccccc3)n2)c1`: the melting point lay in the range of 55 to 58 °C.

`CCOC(=O)NN=COC(CC)NC` (stereo unspecified) yielded a melting point of 104 °C.

Compound `CCOc1cc(-c2nnc3c4ccccc4c(OCc4nc[nH]n4)nn23)no1` displayed a melting point of 240 to 243 °C.

With `CC(c1ccc(O)cc1)(c1ccc(O)cc1)c1ccc2ccccc2c1`, the melting point fell in the range of 185 to 186 °C.

On to `CC(=O)N1CCC(C)(C)c2cc(F)cc(CCN3CCN(c4nsc5ccc(F)cc45)CC3)c21`, for which the melting point was found to be 128 °C.

In turn, `CC1=C(c2ccc(C(=O)N3Cc4cccn4Cc4ccccc43)cc2C)C(C)CCC1` (stereo unspecified) had a melting point of 133 to 135 °C.

As to `COc1ccc2cc([C@H](C)C(=O)OCC[Si](C)(C)C)ccc2c1`, the melting point fell in the range of 81.5 to 82.5 °C.

The compound `Cc1cccc(-c2cccc(-c3nc(C)cc(Cl)n3)n2)c1` came in with a melting point of 105 °C.

`CC(=O)Oc1ccc(C(C)C)c(NC(=O)CN2CCN(CCSc3nc4ccccc4o3)CC2)c1C(C)C` yielded a melting point of 129 to 131 °C.

Compound `Clc1ccc2c(N[C@@H]3CCC[C@H](Nc4ccnc5cc(Cl)ccc45)C3)ccnc2c1` gave a melting point above 250 °C.

For `Clc1ccc(Oc2ccccc2Oc2ncc(Cl)cn2)nc1`, the melting point lay within 108 to 111 °C.

`COc1nc2ccc(Br)cc2cc1C#N` registered a melting point of 169 to 172 °C.

For `COc1cc(C2c3cc4c(cc3C(NC3=CC(=O)N(Cc5ccc(C(F)(F)F)cc5)C3=O)C3COC(=O)C23)OCO4)cc(OC)c1O` (stereo unspecified), the melting point fell in the range of 184 to 186 °C.

`Fc1ccc2[nH]cc(C3=CCC4(CC3)OCCO4)c2c1`: the melting point is 153 to 155 °C.

`Cc1nc2c3c(c(C(=O)N(C)C)cc2n1C)CCC(c1ccccc1)N3` (stereo unspecified) had a melting point of 167 to 170 °C.

On to `CC(C)(C)n1cc(C(=O)O)c(=O)c2cc(F)c(N3CCNCC3)nc21`, for which the melting point is above 270 °C.

Turning to `Cc1oc(-c2ccco2)nc1COc1ccc(COc2nn(C)cc2CC(=O)O)cn1`, the melting point fell in the range of 155 to 156 °C.

In turn, `CCOC(=O)c1ccc(NC(=O)CCc2ccc(Cl)cc2)cc1` displayed a melting point of 163 to 165 °C.

In turn, `c1ccc2c3c([nH]c2c1)C(c1ccc2c(c1)OCCO2)NCC3` (stereo unspecified) came in with a melting point of 144 °C.

For the compound `O=C(O)c1nc2n(n1)-c1cccnc1N(C1CCCCC1)C2`, the melting point fell in the range of 170 to 176 °C.

In turn, `CC1(C)[C@H](/C=C/Cl)[C@@H]1C(=O)O` (relative stereo) registered a melting point of 103 to 105 °C.

Consider `O=C(O)c1cn(C2CC2)c2c(F)c(N3CCCC(n4cncn4)C3)c(F)cc2c1=O` (stereo unspecified), for which the melting point is 217 °C.

`CC(=O)N(C)C1=C(C#N)CC(N)(C(=O)CCCl)C=C1` (stereo unspecified) registered a melting point of 174 to 175 °C.

In turn, `CCC(C)c1c(Cl)nc(NC=O)nc1Cl` (stereo unspecified) showed a melting point of 92 to 93 °C.

On to `O=C(c1ccccc1CBr)c1ccccc1CBr`, for which the melting point was 113 to 114 °C.

In turn, `CCCC(CCC)C(=O)O[C@H]1CCC=C2C=C[C@H](C)[C@H](CC[C@@H]3C[C@@H](O)CC(=O)O3)[C@H]21` registered a melting point of 92 to 94 °C.

For the compound `N#CCCNC(=O)c1cccc(-c2cccc3nc(Cc4cccc(C(F)(F)F)c4)cn23)c1`, the melting point lay within 192 to 193 °C.

Turning to `Fc1ccc2c(-c3cccc(OC[C@@H]4CO4)c3)noc2c1`, the melting point fell in the range of 83 to 84 °C.

Take `CCN(C(=O)c1cc(C(C)(C)C)c(OC(=O)c2cc(C(C)(C)C)c(O)c(C(C)(C)C)c2)c(C(C)(C)C)c1)c1ccc(C)cc1`: the melting point lay within 214 to 216 °C.

Consider `CC(C)(C)c1ccc(/C=C/C(=O)Nc2ccc3nccnc3c2)cc1`, for which the melting point was 229 to 230 °C.

On to `OC(Cn1c(-c2ccc(Cl)cc2)nc2cccnc21)c1ccccc1` (stereo unspecified), for which the melting point lay within 166 to 168 °C.

Regarding `COC(=O)c1cc(O)n[nH]1`, the melting point is 229 to 231 °C.

`C/C=C1\NC(=O)N(CCCC)C1=O` showed a melting point of 127 °C.

On to `O=C(O)c1ccc2c(c1)CCC(CCN1CCC(c3ccccc3)CC1)C2=O` (stereo unspecified), for which the melting point lay in the range of 118 to 120 °C.

For `COCCNCCC(=O)Nc1nc(-c2ccccc2)c(-c2ccc(=O)n(C(C)C)n2)s1`, the melting point lay in the range of 167 to 168 °C.

The compound `Cc1ccc2c(c1)C(=O)c1ccccc1S2(=O)=O` yielded a melting point of 179 to 198 °C.

For the compound `O=S(=O)(C(=CNc1ccccn1)c1ccccc1)c1ccccc1`, the melting point lay in the range of 159 to 160 °C.

On to `CCOC(=O)c1cc2c([nH]1)CCCC2`, for which the melting point was in the range of 70 to 72 °C.

As for `COC(=O)c1ccccc1S(=O)(=O)NC(=O)Nc1nc(F)cc(OC(F)(F)F)n1`, the melting point was in the range of 157 to 161 °C.

Turning to `O=c1n(CCCC2CCCCC2)nnn1-c1ccc(S(=O)(=O)Cl)cc1`, the melting point is 114 to 115 °C.

`COc1ccc(-c2cncc(C#N)c2-c2ccc3[nH]ccc3c2)cc1OC` yielded a melting point of 215 to 217 °C.

For the compound `O=Cc1c2ccc(F)cc2c(C=O)c2ccc(F)cc12`, the melting point is 240 to 242 °C.

Regarding `CC(C)(C)c1cc(OCCCCCc2nnn[nH]2)cc(C(C)(C)C)c1O`, the melting point is 140 to 141 °C.

`O=C(C=Cc1ccccc1)Nc1ccc(S(=O)(=O)O)cc1` displayed a melting point of 235 to 237 °C.

`Cc1cc(Nc2nccc(-c3sc(N)nc3C)n2)ccc1N1CCOCC1`: the melting point lay within 256 to 257 °C.

Regarding `CCOC(=O)Cc1c(C(=O)c2ccc(Cl)cc2)[nH]c2cc(Cl)ccc12`, the melting point lay within 186 to 188 °C.

For the compound `CN1C(c2ccc(NS(C)(=O)=O)cc2)NCc2ccccc2C1c1ccccc1` (stereo unspecified), the melting point lay within 124 to 126 °C.

As to `COc1ccc(Cl)c(Cc2c(Cl)nc(N3CCOCC3)nc2NS(=O)(=O)c2ccc(C(C)(C)C)cc2)c1`, the melting point was in the range of 159 to 162 °C.

Turning to `CC(C)(C)OC(=O)[C@@H]1CC[C@H](CC(=O)N[C@@H](Cc2ccc(OCc3c(Cl)cccc3Cl)cc2)C(=O)O)N1Cc1ccccc1`, the melting point was in the range of 80 to 83 °C.

Regarding `COc1cc(N2CCN(C(=O)Cn3nc(C4=NCCN4)c4cccnc43)CC2)ccc1Cl`, the melting point lay in the range of 133 to 135 °C.

As to `CCCCNCC1CCn2c(nc3ccccc32)S1` (stereo unspecified), the melting point was 122 to 124 °C.

Compound `CCOC(=O)c1c(C)cc2cnc(Cc3ccccc3)nc2c1C` showed a melting point of 77 to 79 °C.

As to `Cc1cc(C)cc(S(=O)(=O)n2c(COC(C)(C)C(=O)O)cc3nc(Cl)ccc32)c1`, the melting point was 154 °C.

`CCCCc1nn(-c2cc(NC(=O)CC)ccc2C(F)(F)F)c(=O)n1Cc1ccc(-c2ccccc2S(=O)(=O)NC(=O)OC(C)(C)C)cc1` had a melting point of 158 to 161 °C.

In the case of `CC(=O)c1ccc(OCCCCCCCc2cc(C)no2)cc1`, the melting point lay within 69 to 71 °C.
